Reference: ChEMBL document CHEMBL1156368, “(+)-epi-Alpha-bisabolol [correction of bisbolol] is the wound-healing principle of Peperomia galioides: investigation of the in vivo wound-healing activity of related terpenoids” (J Nat Prod, 2001)
Values after ≈ are worked out from the molar mass of the structure shown. Active and inactive are the calls of the source. The rule behind the calls is not given here.

Legend:
[1] = Growth inhibition of mouse 3T3 cells; assay type: cell-based; details: NIH3T3 cells
Mus musculus = species on record: Mus musculus; assay: Cicatrizant activity in mouse assessed as wound healing by tensile strength method; assay type: functional

For `CC(C)=CCC[C@](C)(O)[C@H]1CC=C(C)CC1`, the GI50 [1] was 8 µg/mL (≈ 36 µM).

`COc1ccc2c(=O)oc3c(OC)cc(CCN(C)C)c4c(=O)oc1c2c34` [TASPINE] gave an ED50 (Mus musculus) of 15 mg/kg.

For `CC1=CC[C@@H](C(C)(C)O)CC1` [ALPHA-TERPINEOL], the ED50 (Mus musculus) was 240 mg/kg and the GI50 [1] was 17 µg/mL (≈ 110 µM).

With `C=CC(C)(O)CC/C=C(\C)CCC=C(C)C` (stereo not drawn) the ED50 (Mus musculus) was “inactive”.

`CC(C)=CCC[C@](C)(O)[C@@H]1CC=C(C)CC1` [LEVOMENOL] gave an ED50 (Mus musculus) of 228 mg/kg and a GI50 [1] of 84 µg/mL (≈ 378 µM).

With `CC(C)=CCC/C(C)=C/CC/C(C)=C/CO` the ED50 (Mus musculus) was “inactive”.
